Data as given in US10798943B2, “Use of 6-anilino purine derivatives to improve heat stress tolerance of rice seedlings” (SYNGENTA PARTICIPATIONS AG, priority 2016, dated 2020).

Columns and labels:
Format in all cases: in vivo
[1] = tested on: rice seedlings (hybrid rice variety ADT45); test: Phytotoxicity assessments at Kumbakonam trial; settings: for Greenness at 3.2 leaf / Seedling height at 3.2 leaf / Seedling injury / Time to 3.2 leaf / Uniformity of foliage growth at 3.2 leaf / Uniformity of greening at 3.2 leaf / Whiteness of root mat at 3.2 leaf: Kumbakonam
Procedure: For each trial, hybrid rice variety ADT45 was sown in seedling boxes. A compound of formula (Ia) was applied by foliar spray in the form of an EC formulation, at various dose rates and seedling growth stages as shown in Table 1. [table] […] The trial was carried out between 7 May 2015 and 15 Jun. 2015, with transplanting on 29 May 2015. The mean maximum daily temperature during the trial period was 37.3° C., and mean minimum daily temperature during the trial period was 24.9° C. The mean temperature during the entire trial period was 31.1° C.

[2] = tested on: rice seedlings (hybrid rice variety ADT45) under heat stress; test: Transplant shock stress, visual assessment of damage severity, Ramapuram trial; settings: for Transplanting shock stress (8th day) / Transplanting shock stress (12th day) / Transplanting shock stress (4th day): Ramapuram
Source text: (§1) Trials were setup in two locations in India to test the effect of compounds of formula I on tolerance of rice seedlings to heat stress during transplantation.
(§2) For each trial, hybrid rice variety ADT45 was sown in seedling boxes. A compound of formula (Ia) was applied by foliar spray in the form of an EC formulation, at various dose rates and seedling growth stages as shown in Table 1.
(§3) Transplanting took place at the […] growth stage. Transplant shock was used as an indicator of tolerance to heat stress, and was measured via visual assessment of damage severity on a scale of 0% (no damage) to 100% (dead plant); observations such as yellowing and leaf tip burning are indicators of damage. Transplant shock was also assessed by measuring NVDI values using a Green Seeker™ crop sensor, which measures the percentage green area. A low transplant shock stress rating and high NVDI rating indicate improved tolerance to transplant shock stress.
(§4) The trial was carried out between 5 Aug. 2015 and 9 Sep. 2015, with transplanting on 15 Aug. 2015. The mean maximum daily temperature during the trial period was 35.3° C., and mean minimum daily temperature during the trial period was 23.7° C. The mean temperature during the entire trial period was 30.2° C.

[3] = tested on: rice seedlings (hybrid rice variety ADT45) under heat stress; test: Green seeker data, Ramapuram trial; design: key: percentage green area (NDVI), higher = better tolerance
Source text: as §1, §2, §3, §4

[4] = treatment 2: 5 g ai/ha, Pigeon-breast
[5] = treatment 3: 10 g ai/ha, Pigeon-breast
[6] = treatment 4: 20 g ai/ha, Pigeon-breast
[7] = treatment 6: 10 g ai/ha, 2-leaf
[8] = treatment 7: 20 g ai/ha, 2-leaf
[9] = treatment 9: 10 g ai/ha, 3-leaf
[10] = treatment 10: 20 g ai/ha, 3-leaf

COc1cccc(Nc2nc(F)nc3[nH]cnc23)c1 [Formula Ia]
Phytotoxic effects to the rice seedlings (summary) ([1]; Kumbakonam trial, some marginal effects at the highest dose rate): did not cause any phytotoxic effects | Greenness at 3.2 leaf [1, 4]: 3 unit | Seedling height at 3.2 leaf [1, 4]: 14 cm | Seedling injury [1, 4]: 0% | Time to 3.2 leaf [1, 4]: 14 days | Uniformity of foliage growth at 3.2 leaf [1, 4]: 90% | Uniformity of greening at 3.2 leaf [1, 4]: 95% | Whiteness of root mat at 3.2 leaf [1, 4]: 90% | Greenness at 3.2 leaf [1, 5]: 3 unit | Seedling height at 3.2 leaf [1, 5]: 13 cm | Seedling injury [1, 5]: 0% | Time to 3.2 leaf [1, 5]: 14 days | Uniformity of foliage growth at 3.2 leaf [1, 5]: 90% | Uniformity of greening at 3.2 leaf [1, 5]: 95% | Whiteness of root mat at 3.2 leaf [1, 5]: 90% | Greenness at 3.2 leaf [1, 6]: 3 unit | Seedling height at 3.2 leaf [1, 6]: 13 cm | Seedling injury [1, 6]: 0% | Time to 3.2 leaf [1, 6]: 14 days | Uniformity of foliage growth at 3.2 leaf [1, 6]: 90% | Uniformity of greening at 3.2 leaf [1, 6]: 95% | Whiteness of root mat at 3.2 leaf [1, 6]: 90% | Greenness at 3.2 leaf ([1]; treatment 5: 5 g ai/ha, 2-leaf): 3 unit | Seedling height at 3.2 leaf ([1]; treatment 5: 5 g ai/ha, 2-leaf): 14 cm | Seedling injury ([1]; treatment 5: 5 g ai/ha, 2-leaf): 0% | Time to 3.2 leaf ([1]; treatment 5: 5 g ai/ha, 2-leaf): 13 days | Uniformity of foliage growth at 3.2 leaf ([1]; treatment 5: 5 g ai/ha, 2-leaf): 95% | Uniformity of greening at 3.2 leaf ([1]; treatment 5: 5 g ai/ha, 2-leaf): 95% | Whiteness of root mat at 3.2 leaf ([1]; treatment 5: 5 g ai/ha, 2-leaf): 85% | Greenness at 3.2 leaf [1, 7]: 2.8 unit | Seedling height at 3.2 leaf [1, 7]: 14 cm | Seedling injury [1, 7]: 3% | Time to 3.2 leaf [1, 7]: 13 days | Uniformity of foliage growth at 3.2 leaf [1, 7]: 90% | Uniformity of greening at 3.2 leaf [1, 7]: 90% | Whiteness of root mat at 3.2 leaf [1, 7]: 85% | Greenness at 3.2 leaf [1, 8]: 2.5 unit | Seedling height at 3.2 leaf [1, 8]: 14 cm | Seedling injury [1, 8]: 8% | Time to 3.2 leaf [1, 8]: 13 days | Uniformity of foliage growth at 3.2 leaf [1, 8]: 90% | Uniformity of greening at 3.2 leaf [1, 8]: 85% | Whiteness of root mat at 3.2 leaf [1, 8]: 85% | Greenness at 3.2 leaf ([1]; treatment 8: 5 g ai/ha, 3-leaf): 3 unit | Seedling height at 3.2 leaf ([1]; treatment 8: 5 g ai/ha, 3-leaf): 14 cm | Seedling injury ([1]; treatment 8: 5 g ai/ha, 3-leaf): 0% | Time to 3.2 leaf ([1]; treatment 8: 5 g ai/ha, 3-leaf): 13 days | Uniformity of foliage growth at 3.2 leaf ([1]; treatment 8: 5 g ai/ha, 3-leaf): 90% | Uniformity of greening at 3.2 leaf ([1]; treatment 8: 5 g ai/ha, 3-leaf): 95% | Whiteness of root mat at 3.2 leaf ([1]; treatment 8: 5 g ai/ha, 3-leaf): 90% | Greenness at 3.2 leaf [1, 9]: 3 unit | Seedling height at 3.2 leaf [1, 9]: 14 cm | Seedling injury [1, 9]: 0% | Time to 3.2 leaf [1, 9]: 13 days | Uniformity of foliage growth at 3.2 leaf [1, 9]: 90% | Uniformity of greening at 3.2 leaf [1, 9]: 95% | Whiteness of root mat at 3.2 leaf [1, 9]: 90% | Greenness at 3.2 leaf [1, 10]: 2.5 unit | Seedling height at 3.2 leaf [1, 10]: 14 cm | Seedling injury [1, 10]: 15% | Time to 3.2 leaf [1, 10]: 13 days | Uniformity of foliage growth at 3.2 leaf [1, 10]: 90% | Uniformity of greening at 3.2 leaf [1, 10]: 85% | Whiteness of root mat at 3.2 leaf [1, 10]: 85% | Tolerance to heat stress / transplant shock stress, comparison of treatments ([2]; Ramapuram trial, treatments 5 and 6 (2-leaf growth stage, 5-10 g ai/ha)): giving the best results | Transplanting shock stress (8th day) [2, 4]: 12% | Transplanting shock stress (12th day) [2, 4]: 13% | Transplanting shock stress (4th day) ([2]; treatment 2: 5 g ai/ha, Pigeon-breast, scale 0% no damage to 100% dead plant): 4% | Transplanting shock stress (4th day) [2, 5]: 3% | Transplanting shock stress (8th day) [2, 5]: 7% | Transplanting shock stress (12th day) [2, 5]: 17% | Transplanting shock stress (4th day) [2, 6]: 4% | Transplanting shock stress (8th day) [2, 6]: 8% | Transplanting shock stress (12th day) [2, 6]: 20% | Transplanting shock stress (4th day) ([2]; treatment 5: 5 g ai/ha, 2-leaf): 0% | Transplanting shock stress (8th day) ([2]; treatment 5: 5 g ai/ha, 2-leaf): 2% | Transplanting shock stress (12th day) ([2]; treatment 5: 5 g ai/ha, 2-leaf): 4% | Transplanting shock stress (4th day) [2, 7]: 0% | Transplanting shock stress (8th day) [2, 7]: 1% | Transplanting shock stress (12th day) [2, 7]: 7% | Transplanting shock stress (4th day) [2, 8]: 9% | Transplanting shock stress (8th day) [2, 8]: 8% | Transplanting shock stress (12th day) [2, 8]: 11% | Transplanting shock stress (4th day) ([2]; treatment 8: 5 g ai/ha, 3-leaf): 7% | Transplanting shock stress (8th day) ([2]; treatment 8: 5 g ai/ha, 3-leaf): 12% | Transplanting shock stress (12th day) ([2]; treatment 8: 5 g ai/ha, 3-leaf): 13% | Transplanting shock stress (4th day) [2, 9]: 13% | Transplanting shock stress (8th day) [2, 9]: 20% | Transplanting shock stress (12th day) [2, 9]: 31% | Transplanting shock stress (4th day) [2, 10]: 23% | Transplanting shock stress (8th day) [2, 10]: 37% | Transplanting shock stress (12th day) [2, 10]: 34% | Green seeker data (15 DAT afternoon) [3, 4]: 28 | Green seeker data (15 DAT evening) [3, 4]: 31 | Green seeker data (15 DAT morning) [3, 4]: 22 | Green seeker data (15 DAT afternoon) [3, 5]: 25 | Green seeker data (15 DAT evening) [3, 5]: 29 | Green seeker data (15 DAT morning) [3, 5]: 25 | Green seeker data (15 DAT afternoon) [3, 6]: 28 | Green seeker data (15 DAT evening) [3, 6]: 25 | Green seeker data (15 DAT morning) [3, 6]: 21 | Green seeker data (15 DAT afternoon) ([3]; treatment 5: 5 g ai/ha, 2-leaf): 27 | Green seeker data (15 DAT evening) ([3]; treatment 5: 5 g ai/ha, 2-leaf): 34 | Green seeker data (15 DAT morning) ([3]; treatment 5: 5 g ai/ha, 2-leaf): 25 | Green seeker data (15 DAT afternoon) [3, 7]: 29 | Green seeker data (15 DAT evening) [3, 7]: 32 | Green seeker data (15 DAT morning) [3, 7]: 28 | Green seeker data (15 DAT afternoon) [3, 8]: 26 | Green seeker data (15 DAT evening) [3, 8]: 26 | Green seeker data (15 DAT morning) [3, 8]: 22 | Green seeker data (15 DAT afternoon) ([3]; treatment 8: 5 g ai/ha, 3-leaf): 26 | Green seeker data (15 DAT evening) ([3]; treatment 8: 5 g ai/ha, 3-leaf): 30 | Green seeker data (15 DAT morning) ([3]; treatment 8: 5 g ai/ha, 3-leaf): 23 | Green seeker data (15 DAT afternoon) [3, 9]: 26 | Green seeker data (15 DAT evening) [3, 9]: 31 | Green seeker data (15 DAT morning) [3, 9]: 23 | Green seeker data (15 DAT afternoon) [3, 10]: 30 | Green seeker data (15 DAT evening) [3, 10]: 29 | Green seeker data (15 DAT morning) [3, 10]: 25
